Measurements published in patent US20250082659A1, “MANNO-OLIGOSACCHARIDE COMPOSITIONS FOR PATHOGEN CONTROL” (priority 2022, published 2025).

Tested on: Streptococcus mutans
Assay: Inhibition of Streptococcus mutans by penicillin with or without MOS (Example 12)
Details: BHI media

Substance: penicillin
- inhibition of S. mutans growth: 10%
